A short description of series [1]: physical-chemical properties of LNP encapsulating mCherry mRNA. The class given is physicochemical. As to conditions: for Hydrodynamic diameter: LNP: ionizable lipid/DSPC/cholesterol/DMG-PEG2000 50:10:38.5:1.5, mCherry mRNA, pH 7.4 Tris, 25° C. An excerpt: The mRNA was encapsulated in LNP using a self-assembly process in which an aqueous solution of mRNA at pH=3.5 is rapidly mixed with a solution of lipids dissolved in ethanol, then followed by stepwise phosphate and Tris buffer dilution and tangential flow filtration (TFF) purification. LNP composition in this study was: ionizable cationic lipid/distearoylphosphatidylcholine/cholesterol/DMG-PEG2000 (50:10:38.5:1.5 mol/mol) and were encapsulated at an N/P ratio (the ratio of positively-chargeable lipid amine (N=nitrogen) groups to negatively-charged nucleic acid phosphate (P) groups) at 6. LNPs were frozen at −80° C. […] The diameter of the nanoparticles was measured by dynamic light scattering using a Zetasizer Nano ZS (Malvern Instruments Ltd., Malvern, UK) instrument. Size measurement was carried out in pH 7.4 Tris buffer at 25° C. in relevant disposable capillary cells. A non-invasive back scatter system (NIBS) with a scattering angle of 173° was used for size measurements.

In another series the test system is HEK293F cells. The experiment in a line: transfection of HEK293F cells with mCherry mRNA LNP. The class given is cell-based. The following applies: highest dose tested (2 μg RNA per well), 24 hours.
The nature of series [2]: apparent pKa of ionizable lipid in lipid nanoparticle, TNS assay. The class given is physicochemical. As to conditions: for ΔpKa: difference of calculated and measured pKa; for pKa: TNS assay. As for the experimental part: c Log D and c-pKa were calculated as noted above. The measured pKa of a lipid was determined as formulated in a lipid nanoparticle using the TNS assay as described in the following Example.
The apparent pKa of ionizable lipid in the lipid nanoparticle was determined using 6-(p-toluidino)-2-naphthalenesulfonic acid sodium salt (TNS salt, Toronto Research Chemicals, Toronto, ON, Canada). Lipid nanoparticles were diluted in 1×Dulbecco's PBS to a concentration of 1 mM total lipids. TNS salt was prepared as a 1 mg/mL stock solution in DMSO and then further diluted using distilled water to a working solution of 60 μg/mL ([…]). Diluted lipid nanoparticle samples were further diluted to 90 μM total lipids in 165 μL of buffered solution containing 10 mM HEPES, 10 mM MES, 10 mM ammonium acetate, 130 mM NaCl, and final TNS concentration of 1.33 μg/mL (4 μM) with the pH ranging from 3.5 to 12.2. Following pipette mixing and incubation at room temperature in the dark for 15 min, fluorescence intensity was measured at room temperature in a BioTek Synergy H1 plate reader using excitation and emission wavelengths of 321 and 445 nm, respectively. The fluorescence signal was blank subtracted and plotted as a function of the pH, then analyzed using a nonlinear (Boltzmann) regression analysis with the apparent pKa determined as the pH giving rise to half maximal fluorescence intensity as calculated by the Henderson-Hasselbalch equation.

The subject of the next series is mouse splenic T cells. The experiment in a line: targeted transfection of T cells in vivo with CD5-targeted tLNP. As to conditions: C57Bl/6 mice, 10 μg via tail vein, spleen at 24 hours. The method, then:
To assess the performance of tLNP described in Example 35 they were used to transfect mouse T cells by injecting the tLNP into live mice and evaluated for their ability to generate murine T cells that express the mCherry reporter gene in vivo. All tLNP test articles were thawed at room temperature for 30 minutes and then diluted 1:2 with sterile water for injection to achieve a final dose concentration of 100 μg/mL. 100 μL (10 μg) of each test article was then injected via the tail vein into 8-week-old female C57Bl/6 mice. All treated mice were then sacrificed at 24 hours post-treatment and their spleens collected. Each spleen was then dissociated to single cell suspension and stained with antibodies to identify T cells, B cells, monocytes and non-hematopoietic cells. Stained samples were then analyzed by flow cytometry for expression of mCherry in immune cell subsets, and non-hematopoietic cells. Data analysis was performed using FlowJo (Version 10.8.1) and GraphPad Prism (9.4.1.).

Setting [3] is: ionizable lipid in tLNP, read-out: Measured pKa.
Where [4] appears, read: measured, lipid formulated in a lipid nanoparticle, read-out: pKa.

We go through two compounds from patent US20230320995A1, “IONIZABLE CATIONIC LIPIDS AND LIPID NANOPARTICLES” (CAPSTAN THERAPEUTICS, INC., priority 2022, published 2023).

Like-named read-outs stand apart in the source and are kept apart here.

Protocol for HEK293F cells: The ability of the LNP formed in the preceding Example to transfect HEK293F cells, a human embryonic kidney cell-derived cell line, with the mCherry mRNA was assessed. Viral Production Cells (Gibco Catalog number: A35347), a derivative of the HEK 293F cell line adapted to a chemically-defined, serum-free and protein-free medium (LV-MAX™ Production Medium; Gibco Catalog number: A3583401) were grown in suspension, sedimented, resuspended at about 1×10^6 cells/mL, and 200 μL distributed to the wells of a 96-well U-bottom plate. Frozen LNP were thawed and diluted to 100 μg mRNA/mL with sterile water for injection. An appropriate volume of LNP was added to provide 0, 0.3, 0.6, or 2 μg RNA per well in duplicate and mixed by re-pipetting. The cells were then incubated for 1 hour at 37° C. in a CO2 incubator, washed three times with phosphate buffered saline, resuspended in 400 μL of medium in a deep-well 96-well plate, and incubated at 37° C. in a CO2 incubator on an orbital shaker at 900 RPM.
Twenty-four hours after addition of the LNP to the cells they were stained with Aqua Live/Dead (Thermo: catalog L34965) to assess cell viability. Transfection rate and expression level in the transfected cells was assessed by flow cytometry based on mCherry fluorescence.

As for `CCCCCCCCC(=O)OCC(COC(=O)CCCCCCCC)CC(=O)OCCN(CCOC(=O)CC(COC(=O)CCCCCCCC)COC(=O)CCCCCCCC)C(=O)OCCN(C)C` [Compound A-11], the Hydrodynamic diameter in series [1] (N/P 6, DLS) came out at 82 nm. Besides, the transfection rate in the series on HEK293F cells is recorded as ~50%. The ΔpKa in series [2] is listed as 1.81. For the same compound, the pKa in series [2] (setting [3]) was determined as 6.65. The pKa in series [2] (setting [4]) was in the range of 6 to 7. In the series with mouse splenic T cells, the “level of mCherry expression (MFI) in vivo” value is listed as “distinctly greater than that achieved with the other tLNP” and the “transfection rate of splenic T cells in vivo” value is recorded as “around 7%”.

As for `CCCCCCCCCC(=O)OCC(COC(=O)CCCCCCCCC)CC(=O)OCCN(CCOC(=O)CC(COC(=O)CCCCCCCCC)COC(=O)CCCCCCCCC)C(=O)NCCCN(C)C` [Compound A-2], in series [1] (LNP 50:10:38.5:1.5, mCherry mRNA, N/P 6), the “Encapapsulation Efficiency” value is recorded as 99%. Further, the “PDI (polydispersity index)” value in series [1] (LNP 50:10:38.5:1.5, mCherry mRNA, DLS) came to 0.13. In addition, in series [1] (N/P 6, DLS), the Hydrodynamic diameter is 73 nm. Also, in series [2], the ΔpKa is 1.62. The pKa in series [2] (setting [3]) and in series [2] (setting [4]) was 7.92 throughout.
